From PubChem BioAssay AID1645848
In brackets after ≈: the same amount, converted by molar mass.

Conditions: buffer; pH 7.4; 6.0 h; 150.0 µM

SMILES | solubility kinetic [µg/mL]
CC[S+](=O)([O-])Nc1ccccc1C(=O)Nc1nc(-c2ccccc2)cs1 | 40.5 (≈ 104 µM)
Cc1ccc2oc3c(c(=O)c2c1)C(c1cccc(O)c1)N(CCCN1CCOCC1)C3=O (stereo not drawn) | > 64
CCc1cccc(C)c1Nc1c(-c2ccc(N(C)C)cc2)nc2ncccn12 | 1.88 (≈ 5.05 µM)
O=[S+]([O-])(Nc1nccs1)c1ccc(NCc2cccc3c2NCC3)cc1 | > 57
Cc1cc(C)cc(NS(=O)(=O)c2ccc3[nH]cc(C(=O)NCc4ccco4)c(=O)c3c2)c1 | 2.87 (≈ 6.35 µM)
CNc1nc(-c2ccc3c(N)n[nH]c3c2)cc(N2C[C@@H](C(=O)NC3CCCCC3)CC[C@H]2C)n1 | 15.2 (≈ 32.9 µM)
CCCCCn1c(=O)[nH]c2cc(C(=O)NCCCN3CCCCC3)ccc2c1=O | > 59
CC1=Nc2cc(C(=O)NCc3ccccc3Cl)ccc2Sc2c(C)ccc(C)c21 | < 1
CCC1=Nc2cc(C(=O)NCCCOC)ccc2Sc2ccc(Br)cc21 | 6.63 (≈ 15.3 µM)
O=C(NC1CCCc2c1cnn2-c1cccc(O)c1)c1ccccn1 (stereo not drawn) | 40 (≈ 120 µM)
CCOc1ccc(C(C)CNC(=O)c2cc3sccc3n2Cc2ccccc2)cc1OCC (stereo not drawn) | < 1
O=C(NC1CCCc2c1cnn2-c1ccc(F)cc1F)c1ccccc1 (stereo not drawn) | 4.29 (≈ 12.1 µM)
CCN(CC)CCNC(=O)c1c(C)[nH]c(C=C2C(=O)Nc3ccc(F)cc32)c1C | > 59
COc1cc(C2CC(=O)Nc3cc4c(cc32)OCCO4)cc(Br)c1OC (stereo not drawn) | < 1
CC(=O)c1c(C)[nH]c(C(=O)Nc2cccc([S+](=O)([O-])Nc3ccc(C#N)cc3)c2)c1C | 36.8 (≈ 84.3 µM)
CC(C)OC(=O)c1ccnc2cc(C(OCCN3CCCCC3)c3ccccc3Cl)sc12 (stereo not drawn) | 16.6 (≈ 35 µM)
COc1ccnc(NC(=S)N2CCN(c3ccc(Cl)c(Cl)c3)CC2)c1 | 3.16 (≈ 7.96 µM)
CN(C)C(=O)c1ccc(-c2cc[nH]c(=O)c2N)cc1 | > 38
CCCOC(=O)c1ccc(Oc2c(-c3ccc(O)cc3O)n[nH]c2C)cc1 | < 1
Cc1ccc(S(=O)(=O)Nc2cnccc2C(=O)Nc2nc(-c3cc(Br)cs3)cs2)cc1 | 0.958 (≈ 1.79 µM)
COc1ccc(-c2ccc3ncc(Nc4cccnc4OC)n3n2)cn1 | 5.33 (≈ 15.3 µM)
O=C1C(c2ccc(C(F)(F)F)cc2)=C(Nc2ccc(Cl)cc2)c2ccccc21 | < 1

SMILES | solubility kinetic [µg/mL]
CCN1CCC(N(Cc2ccc3c(c2)OCO3)C(=O)Nc2cc(Cl)ccc2C(=O)OC)CC1 | 58.5 (≈ 123 µM)
Cc1nc(Sc2nnnn2C)c2c(-c3ccccc3)csc2n1 | 19.4 (≈ 57.1 µM)
O=S(=O)(Nc1cccc(C(F)(F)F)c1)c1ccc(NS(=O)(=O)c2ccc3c(c2)OCCO3)cc1 | < 1
Cc1ccc(C)c(NC2=C(c3ccc(C(F)(F)F)cc3)C(=O)c3ccccc32)c1 | < 1
C=CCc1cccc(CNc2ccc(S(=O)(=O)Nc3nccs3)cc2)c1O | 23.1 (≈ 57.5 µM)
CN(c1ncccc1CNc1nc(Nc2ccc3c(c2)CC(=O)N3)ncc1C(F)(F)F)S(C)(=O)=O | 51.7 (≈ 102 µM)
O=C(Nc1ccc(S(=O)(=O)Nc2nccs2)cc1)c1cccnc1 | > 53
Cc1ccc(NC(=O)NCC2CCN(Cc3cccc(Cl)c3)CC2)cc1Cl | < 1
Nc1ncccc1-c1nc2ccc(-c3ccccc3)nc2n1-c1ccc(C2(N)CCC2)cc1 | > 64
Cc1nn(CCc2nc(-c3ccc4ccccc4c3)cs2)c2[nH]c(=O)cc(C(F)(F)F)c12 | < 1
COc1ccc(CNC(=O)Cn2nc3c(cc2=O)CCCC3)cc1 | > 48
Cc1ccc(S(=O)(=O)Nc2cncc(C(=O)Nc3nc(-c4ccccc4)cs3)c2)cc1 | < 1
O=C(O)c1ccnc2cc(C(OCCN3CCCCC3)c3ccccc3Cl)[nH]c12 (stereo not drawn) | > 61
NC(=O)NCC(=O)N[C@H]1CC[C@H](Nc2nccc(-c3ccncc3)n2)C1 | > 35
O=C(Oc1ccc[nH]c1=O)c1cc([N+](=O)[O-])cc([N+](=O)[O-])c1 | > 45
Cc1ccccc1C(=O)N1CCc2cc(-c3nc(NC(=O)Cc4ccc5c(c4)OCCO5)sc3C)ccc21 | < 1
Cc1cccc(N2CCN(C(=O)Cn3ncc4c3-c3ccccc3OC4)CC2)c1C | 3.85 (≈ 9.57 µM)
N#Cc1cnc(NS(=O)(=O)c2ccc(NC(=O)Cc3ccc(F)c(Cl)c3)cc2)s1 | > 67
Cc1ccc(-c2cc(C(=O)Nc3ccccn3)c3ccccc3n2)cc1 | < 1
CCOc1ccccc1C(=O)Nc1cccnc1C(=O)Nc1cccc(S(=O)(=O)C(F)(F)F)c1 | < 1
CCO.Nc1nc(N)c2cc(Sc3ccc4ccccc4c3)ccc2n1 | < 1

Now from value to molecule:

solubility kinetic [µg/mL] | SMILES
36.6 (≈ 64.8 µM) | C=C[C@]1(C)C[C@@H](OC(=O)CSC(C)(C)CNC(=O)[C@H](N)C(C)C)[C@]2(C)[C@H](C)CC[C@]3(CCC(=O)[C@H]32)[C@@H](C)[C@@H]1O
< 1 | CNc1oc(-c2cccc(-c3ccccc3)c2)nc1C#N
< 1 | Cc1ccc(-c2ccc(CNc3nc(-c4ccccc4C(C)C)nc4ccccc34)cc2)cn1
30 (≈ 103 µM) | Cc1ccc(CNCc2cn[nH]c2-c2ccc(C)cc2)cc1
18.7 (≈ 45.1 µM) | CN1CCN(c2ccc(Nc3nc(-c4ccncc4)nc4ccccc34)cc2F)CC1
< 1 | Oc1ccc(CNc2cccc(F)c2)c2cccnc12
< 1 | CC(=O)Nc1cc(-c2nc(Nc3ccc(F)c(F)c3)c3ccccc3n2)ccn1
65.7 (≈ 83.7 µM) | CC[C@H](C)[C@@H]([C@@H](CC(=O)N1CCC[C@H]1[C@H](OC)[C@@H](C)C(=O)N[C@@H](Cc1ccccc1)c1nccs1)OC)N(C)C(=O)[C@@H](NC(=O)[C@H](C(C)C)N(C)C)C(C)C
< 1 | O=S(=O)(c1ccc2ccccc2c1)N1CCN(c2nc(-c3cccs3)nc3ccccc23)CC1
< 1 | COc1cc(C(=O)Nc2nc(-c3ccccc3)cs2)ccc1NS(=O)(=O)c1ccc(C)cc1
< 1 | COc1cccc(C(=O)NCCSc2c(-c3ccc(F)cc3)[nH]c3ccccc23)c1OC
4.02 (≈ 10 µM) | Fc1cc(Nc2nc(-c3ccncc3)nc3ccccc23)ccc1N1CCNCC1
24.3 (≈ 70.1 µM) | Oc1ccccc1CN1CCNc2cc(Nc3ccccc3)ncc2C1
18.8 (≈ 54 µM) | COc1ccc(-c2cnc(N3CCC(C(N)=O)CC3)s2)cc1OC
< 1 | CCCCn1cc2c(c1-c1ccc(Br)cc1)c(=O)n(C)c(=O)n2C
10.2 (≈ 28.5 µM) | CCN(CC)S(=O)(=O)c1cccc(C(=O)Nc2ccc(C#N)cc2)c1
1.1 (≈ 2.65 µM) | O=C(Nc1ccc2oc(-c3cccnc3)nc2c1)c1ccc(-c2cccc(Cl)c2)o1
2.09 (≈ 5.17 µM) | Cc1ccc(C(=O)N2CCc3sc(C(=O)NC(C)c4ccccc4)cc3C2)cc1 (stereo not drawn)
4.46 (≈ 12.4 µM) | CCOc1ccc(CCNC(=O)c2cc3c(s2)CCC3)cc1OCC
1.23 (≈ 3.85 µM) | Oc1ccc(CNc2ccccc2C(F)(F)F)c2cccnc12
< 1 | CSc1cc2c(s1)c1cnn(Cc3cccc(N)c3)c(=O)c1n2C
< 1 | CC(C)(C)C1CCc2c(sc(NC(=O)c3ccncc3)c2C(N)=O)C1 (stereo not drawn)
> 56 | Cc1nc(NC2CCCCC2)c2nc(-c3ccccc3)n(CCN(C)C)c2n1
19.2 (≈ 41.9 µM) | Cn1cc(C2=C(c3cn(CCCSC(=N)N)c4ccccc34)C(=O)NC2=O)c2ccccc21
1.76 (≈ 4.79 µM) | Cc1ccc(Cl)cc1NS(=O)(=O)c1cc2c(cc1F)NC(=O)CC2
< 1 | Cc1nc(NC(=O)C2CC(=O)N(c3n[nH]c4cc(Br)ccc34)C2)sc1C (stereo not drawn)
> 55 | CN(Cc1ccccc1)C(=O)C1CCN(Cc2cccc3ccccc23)CC1
< 1 | NC(=O)c1cccc(-c2cc(Nc3ccc(OC(F)(F)F)cc3)ncn2)c1

solubility kinetic [µg/mL] | SMILES
< 1 | Cc1cc(N)c2cc(NC(=O)Nc3ccc4nc(C)cc(N)c4c3)ccc2n1.Cl.Cl
0.132 (≈ 0.326 µM) | CC(C)c1ccccc1-c1ncc(F)c(NCc2ccc(-c3cccnc3)s2)n1
3.33 (≈ 10.1 µM) | CC(=O)C1CCN(c2ncc(-c3cccc(N(C)C)c3)s2)CC1
< 1 | O=C(Nc1nc(-c2ccc(F)cc2)cs1)c1ccncc1NS(=O)(=O)c1ccccc1Cl
30.5 (≈ 99.8 µM) | COc1ccc(C2CC(=O)Nc3nc(N)sc32)cc1OC (stereo not drawn)
42.6 (≈ 120 µM) | COCCCNC(=O)c1cc2cc(S(=O)(=O)N(C)C)ccc2n1C
10.1 (≈ 31.5 µM) | Cc1cccc2c1NC(=O)/C2=C/c1cc(Cl)c(O)c(Cl)c1
13.4 (≈ 36.5 µM) | FC(F)(F)c1cccc(N2CCN(C(=S)Nc3ccccn3)CC2)c1
< 1 | CC(C)(C)c1ccc(C(=O)N2CC(=O)Nc3ccc(F)cc3C2c2ccc(F)cc2)cc1 (stereo not drawn)
7.65 (≈ 18.2 µM) | Cc1ccc(N2CCC(CNc3nc(-c4ccccc4C(C)C)ncc3F)CC2)cn1
< 1 | O=C(Nc1nc(-c2ccccc2)cs1)c1ccncc1NS(=O)(=O)c1cccs1
< 1 | Fc1ccc(Nc2cc(-c3ccccc3)nc(-c3ccncc3)n2)cc1F
2.3 (≈ 5.5 µM) | O=C(c1ccco1)N1CCN(c2nc(-c3ccc(Br)cc3)cs2)CC1
4.03 (≈ 8.68 µM) | Cc1cnc(SCc2ccccn2)nc1C1CCCN(C(=O)c2scc3c2CCCC3)C1 (stereo not drawn)
> 67 | Cc1ccc(S(=O)(=O)Nc2cnccc2C(=O)Nc2nc(-c3cccnc3)cs2)cc1
> 100 | COC[C@@H]1CN(C(=O)c2nn(C)c3ccccc23)C[C@H]1c1nc(C)no1
> 68 | C[C@@H]1C(=O)O[C@H]2[C@H]1CC[C@@]1(C)Cc3sc(NS(=O)(=O)Cc4ccccc4)nc3[C@@H](C)[C@H]21
> 43 | OCc1ccc(-c2ccc(-c3ccc(CO)s3)o2)s1
< 1 | c1ccc(-c2csc3ncnc(Sc4nnn(-c5ccccc5)n4)c23)cc1
< 1 | Fc1cnc(-c2ccccc2C(F)F)nc1NCc1ccc(-c2cccnc2)cc1
< 1 | O=C(c1cnc(N2CCCCC2)c2ccccc12)N1CCN(c2ccc(Cl)cc2)CC1
< 1 | COc1ccc(NC(=O)c2ccccc2)cc1S(=O)(=O)Nc1ccc(Br)cc1
2.73 (≈ 8.36 µM) | O=C(c1nc(-c2ccc(Cl)nc2)c2ccccn12)N1CCCC1
< 1 | Cc1cnc(-c2ccccc2C(C)C)nc1NCC1CCN(c2cccnc2)CC1
< 1 | CCOc1ccc(CCNC(=O)c2cc3sccc3n2Cc2ccccc2)cc1OCC
9.68 (≈ 25.4 µM) | Cc1ccnc(NC(=S)N2CCN(c3cccc(C(F)(F)F)c3)CC2)c1
< 1 | CCN(CC)C(=O)c1coc(COc2ccc3c(c2)C(c2cccc(F)c2)N(C(=O)C(C)C)CC3)n1 (stereo not drawn)
